In patent publication US20240262804A1, “NITROGEN-CONTAINING HETEROCYCLIC KETONES, PREPARATION METHODS AND MEDICINAL USES THEREOF” (Hansoh Bio LLC, priority 2021, published 2024):
pIC50: −log10 of the molar value.

Target: bovine cardiac myosin (Bos taurus (Bovine), UniProt Q9BE39)
Assay: Myosin inhibitory potency: PK/LDH-coupled ATPase assay on bovine skinned cardiac myofibrils
Assay type: biochemical
Settings: pCa=6.25, 50 μM ATP, 25° C., read-out: myosin inhibition activity IC50
Protocol: The average rates of ATPase inhibition, and the IC50 values are determined by Victor Nivo multimode plate reader (PerkinElmer, USA).
As to the assays background, a biochemical assay couples the ATPase activity of bovine cardiac myosin to an enzymatic coupling system consisting of pyruvate kinase and lactate dehydrogenase (PK/LDH) and monitoring the absorbance decrease of NADH (at 340 nm) as a function of time to measure the inhibitory ability of small molecule agents. In the assay, PK converts ADP (Adenosine diphosphate) to ATP (adenosine triphosphate) by converting PEP (phosphoenolpyruvate) to pyruvate. Pyruvate is then converted to lactate by LDH by converting NADH (nicotinamide adenine dinucleotide) to NAD (oxidized nicotinamide adenine dinucleotide).
In our experiments, bovine skinned cardiac myofibrils were isolated from the frozen bovine left ventricle as myosin's source in the ATPase assay. The calcium concentration that achieves a 50% (pCa50 or pCa=6.25) activation of the myofibril system was chosen as the final condition for assessing the activation activity according to the literature (DOI: 10.1074/jbc.M117.776815). Myofibrils ATPase activity was measured in a buffered solution containing 12 mM PIPES (piperazine-N, N′-bis(2-ethane sulfonic acid) and 2 mM magnesium chloride at pH 6.8 (PM12 buffer). Final assay conditions were 1 mg/mL of bovine cardiac myofibrils, 1:20 of stock PK/LDH (Sigma-Aldrich, Cat No. P0294-5X5ML), 50 μM ATP, 1 mM DTT (dithiothreitol), 0.75 mM NADH, 1.5 mM PEP at pCa50 (pCa=6.25). Compounds were dissolved in DMSO (dimethyl sulfoxide). Serial dilution of compounds was created such that the final desired concentration of compound would be achieved in a volume of 150 μL with a fixed DMSO concentration of 2% (v/v). 75 μL of a solution containing bovine cardiac myofibrils, PK/LDH, and calcium were added to a 96 well plate for a 7 point dose-response. In some circumstances, 10 point-response was used to repeat the ATPase assays on compounds of interest. Compounds were added to the myofibrils solution and incubated for 5 minutes. The enzymatic reaction was started with the addition of 75 μL of a solution containing ATP, PEP, NADH, compounds, and calcium. The ATPase activity was measured by reading absorbance at 340 nm in a PerkinElmer Victor Nivo plate reader at 25° C. in kinetic mode for 15 minutes using clear bottom plates. The slopes of the absorbance changes as a function of time for the first 10 minutes were normalized to slopes on the control wells containing all reagents, including DMSO, but without compounds. This normalized rate was then plotted as a function of small molecule concentration in GraphPad prism 9. The data were fitted to a four-parameter fit, and IC50 was calculated using Graphpad Prism 9.

Sequence of bovine cardiac myosin (Q9BE39 whole entry): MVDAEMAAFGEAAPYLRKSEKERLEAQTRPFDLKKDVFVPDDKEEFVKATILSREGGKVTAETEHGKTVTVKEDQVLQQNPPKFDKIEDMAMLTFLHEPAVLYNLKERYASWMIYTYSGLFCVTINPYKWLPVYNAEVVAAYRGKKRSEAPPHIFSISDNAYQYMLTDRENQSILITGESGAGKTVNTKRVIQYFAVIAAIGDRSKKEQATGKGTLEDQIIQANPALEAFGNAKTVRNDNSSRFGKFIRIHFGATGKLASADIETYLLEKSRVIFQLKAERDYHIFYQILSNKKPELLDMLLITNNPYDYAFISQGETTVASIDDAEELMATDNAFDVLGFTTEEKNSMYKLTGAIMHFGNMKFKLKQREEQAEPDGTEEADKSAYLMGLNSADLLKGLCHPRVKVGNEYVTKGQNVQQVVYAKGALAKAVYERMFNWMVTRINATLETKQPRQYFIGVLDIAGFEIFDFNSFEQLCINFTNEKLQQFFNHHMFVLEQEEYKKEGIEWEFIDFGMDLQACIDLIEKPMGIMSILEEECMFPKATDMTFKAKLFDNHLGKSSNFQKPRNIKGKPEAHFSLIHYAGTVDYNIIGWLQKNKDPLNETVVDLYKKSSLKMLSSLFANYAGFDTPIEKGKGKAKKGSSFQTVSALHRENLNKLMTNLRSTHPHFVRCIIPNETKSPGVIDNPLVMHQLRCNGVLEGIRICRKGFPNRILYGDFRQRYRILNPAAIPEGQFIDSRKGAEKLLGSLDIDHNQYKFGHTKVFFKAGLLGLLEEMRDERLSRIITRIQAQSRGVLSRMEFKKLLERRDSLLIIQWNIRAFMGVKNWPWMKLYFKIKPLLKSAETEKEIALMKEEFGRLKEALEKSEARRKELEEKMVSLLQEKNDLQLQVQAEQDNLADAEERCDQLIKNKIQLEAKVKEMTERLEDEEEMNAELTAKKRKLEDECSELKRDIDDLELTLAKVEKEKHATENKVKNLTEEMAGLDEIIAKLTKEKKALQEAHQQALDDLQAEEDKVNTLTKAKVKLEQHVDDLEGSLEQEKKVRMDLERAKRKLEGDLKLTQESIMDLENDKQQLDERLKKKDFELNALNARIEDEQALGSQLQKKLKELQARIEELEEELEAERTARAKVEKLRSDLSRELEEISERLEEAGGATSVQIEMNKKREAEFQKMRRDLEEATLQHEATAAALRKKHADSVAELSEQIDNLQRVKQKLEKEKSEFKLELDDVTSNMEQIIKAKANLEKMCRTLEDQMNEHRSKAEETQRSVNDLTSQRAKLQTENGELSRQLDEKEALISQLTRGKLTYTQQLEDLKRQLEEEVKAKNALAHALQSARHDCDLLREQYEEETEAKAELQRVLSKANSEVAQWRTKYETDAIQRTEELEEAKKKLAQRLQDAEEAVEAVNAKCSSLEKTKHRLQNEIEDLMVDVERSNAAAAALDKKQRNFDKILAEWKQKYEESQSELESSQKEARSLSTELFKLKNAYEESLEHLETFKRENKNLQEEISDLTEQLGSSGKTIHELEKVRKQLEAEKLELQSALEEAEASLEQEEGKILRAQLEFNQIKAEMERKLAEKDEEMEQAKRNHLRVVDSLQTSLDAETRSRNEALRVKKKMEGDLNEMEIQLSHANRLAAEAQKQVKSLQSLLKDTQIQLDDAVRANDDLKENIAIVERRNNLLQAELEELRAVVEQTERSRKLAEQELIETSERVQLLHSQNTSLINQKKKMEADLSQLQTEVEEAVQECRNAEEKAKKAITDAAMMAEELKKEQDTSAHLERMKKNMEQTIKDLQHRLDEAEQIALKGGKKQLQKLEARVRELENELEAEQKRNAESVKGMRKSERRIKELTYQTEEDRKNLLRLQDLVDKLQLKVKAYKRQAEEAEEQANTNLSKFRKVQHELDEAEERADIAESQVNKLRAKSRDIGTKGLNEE
Sequence of bovine cardiac myosin (P85100 whole entry partner): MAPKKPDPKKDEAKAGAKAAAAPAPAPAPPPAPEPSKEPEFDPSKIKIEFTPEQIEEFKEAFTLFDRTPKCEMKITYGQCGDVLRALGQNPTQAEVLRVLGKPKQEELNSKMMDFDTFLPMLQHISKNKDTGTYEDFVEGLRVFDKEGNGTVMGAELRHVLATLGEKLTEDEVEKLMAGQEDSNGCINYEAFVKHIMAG
Sequence of bovine cardiac myosin (Q3SZE5 whole entry partner): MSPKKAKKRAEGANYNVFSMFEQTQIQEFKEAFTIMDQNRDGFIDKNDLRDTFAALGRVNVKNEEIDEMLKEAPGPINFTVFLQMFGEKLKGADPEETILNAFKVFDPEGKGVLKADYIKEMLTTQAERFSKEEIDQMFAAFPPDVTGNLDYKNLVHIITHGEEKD

Row | pIC50 | SMILES
1 | 5.46 | CC(Nc1nc(=O)n(C2CCOCC2)c(=O)[nH]1)c1cccc(F)c1 (stereo not drawn) [Example 122]
2 | 5.52 | C[C@H](Nc1nc(=O)n(C2CCN(C3CC3)CC2)c(=O)[nH]1)C1CCCCC1 [Example 32]
3 | 6.24 | CC(=O)N1CC(c2cccc([C@H](C)Nc3nc(=O)n(C4CCOCC4)c(=O)[nH]3)c2)C1 [Example 273]
4 | 5.68 | C[C@H](Nc1nc(=O)n(C2CCOCC2)c(=O)[nH]1)c1cccc(-n2cccn2)c1 [Example 199]
5 | 5.21 | CC(n1c(=O)nc(N[C@@H](C)C2CCCCC2)[nH]c1=O)C(F)(F)F (stereo partly drawn) [Example 52]
6 | 5.80 | C[C@H](Nc1nc(=O)n(C2CCOCC2)c(=O)[nH]1)c1ccc(C(C)(C)C)cc1 [Example 160]
7 | 6.44 | C[C@H](Nc1nc(=O)n(C2CCOCC2)c(=O)[nH]1)c1cccc(C2CN(CC(F)(F)F)C2)c1 [Example 288]
8 | 5.14 | Cc1cccc([C@H](C)Nc2nc(=O)n(C3CCOC3)c(=O)[nH]2)c1 (stereo partly drawn) [Example 95]
9 | 5.57 | C[C@H](Nc1nc(=O)n(C2CCOCC2)c(=O)[nH]1)c1cc(C(F)(F)F)cc(C(F)(F)F)c1 [Example 196]
10 | 5.03 | Cc1cccc([C@H](C)Nc2nc(=O)n(C3CCOCC3(C)C)c(=O)[nH]2)c1 (stereo partly drawn) [Example 99]
11 | 5.07 | CC(C)n1c(=O)nc(NC(C2CCCCC2)C2CC2)[nH]c1=O (stereo not drawn) [Example 69]
12 | 5.76 | CC(C)n1c(=O)nc(N[C@@H](C)c2ccc(OC(F)(F)F)cc2)[nH]c1=O [Example 177]
13 | 5.10 | C[C@H](Nc1nc(=O)n(CC(F)(F)F)c(=O)[nH]1)c1ccc(OC(F)(F)F)cc1 [Example 176]
14 | 5.78 | C[C@H](Nc1nc(=O)n(C2CCOCC2)c(=O)[nH]1)c1cccc(-c2cc[nH]n2)c1 [Example 227]
15 | 5.48 | C[C@H](Nc1nc(=O)n(C2CCOCC2)c(=O)[nH]1)c1cccc(C2=CCN(C(=O)OC(C)(C)C)CC2)c1 [Example 210]
16 | 5.42 | C[C@H](Nc1nc(=O)n(C2CCOCC2)c(=O)[nH]1)c1cccc(N2CCOCC2)c1 [Example 206]
17 | 6.05 | C[C@H](Nc1nc(=O)n(C2CCOCC2)c(=O)[nH]1)c1cccc(-c2cncnc2)c1 [Example 223]
18 | 5.68 | Cc1nccn1-c1cccc([C@H](C)Nc2nc(=O)n(C3CCOCC3)c(=O)[nH]2)c1 [Example 203]
19 | 5.97 | C[C@H](Nc1nc(=O)n([C@H]2CCOC[C@H]2F)c(=O)[nH]1)c1ccc(Cl)c(Cl)c1 [Example 321]
20 | 4.91 | CC(Nc1nc(=O)n(C2CCOCC2)c(=O)[nH]1)c1ccc(CO)cc1 (stereo not drawn) [Example 140]
21 | 6.64 | CC(Nc1nc(=O)n(C2CCOCC2)c(=O)[nH]1)c1ccccc1C(F)(F)F (stereo not drawn) [Example 129]

Row | pIC50 | SMILES
22 | 5.91 | COC(=O)N1CCC(n2c(=O)nc(N[C@@H](C)c3cccc(C)c3)[nH]c2=O)CC1 [Example 242]
23 | 5.79 | C[C@H](Nc1nc(=O)n([C@@H]2CCOC[C@@H]2F)c(=O)[nH]1)c1cccc(C(F)(F)F)c1 [Example 309]
24 | 5.13 | C[C@H](Nc1nc(=O)n(C2CCCCC2)c(=O)[nH]1)C1CCCCC1 [Example 60]
25 | 5.32 | O=c1nc(NC(CF)c2ccccc2)[nH]c(=O)n1C1CCCCC1 (stereo not drawn) [Example 142]
26 | 5.17 | Cc1ccccc1C(C)Nc1nc(=O)n(C2CCNCC2)c(=O)[nH]1 (stereo not drawn) [Example 189]
27 | 5.91 | Cc1ccc([C@H](C)Nc2nc(=O)n(C3CCOCC3)c(=O)[nH]2)cc1C [Example 153]
28 | 6.09 | Cc1ccccc1-c1cccc([C@H](C)Nc2nc(=O)n(C3CCOCC3)c(=O)[nH]2)c1 [Example 225]
29 | 5.44 | C[C@H](Nc1nc(=O)n([C@@H](C)C(F)(F)F)c(=O)[nH]1)c1cccc(F)c1 [Example 179]
30 | 5.32 | C[C@H](Nc1nc(=O)n([C@H]2CC[C@@H](O)CC2)c(=O)[nH]1)C1CCCCC1 [Example 237]
31 | 5.04 | C[C@H](Nc1nc(=O)n(-c2cccnc2)c(=O)[nH]1)C1CCCCC1 [Example 24]
32 | 5.97 | CC(C)Oc1ccc([C@H](C)Nc2nc(=O)n(C3CCOCC3)c(=O)[nH]2)cc1 [Example 43]
33 | 5.75 | COC[C@H](Nc1nc(=O)n(C2CCOCC2)c(=O)[nH]1)c1ccccc1 [Example 304]
34 | 6.00 | C[C@H](Nc1nc(=O)n(C2CCOCC2)c(=O)[nH]1)c1ccc(C(F)F)cc1 [Example 157]
35 | 5.47 | CC(Nc1nc(=O)n(C2CCOCC2)c(=O)[nH]1)c1ccccc1Br (stereo not drawn) [Example 119]
36 | 5.74 | CC(=O)N1CCC(c2cccc([C@H](C)Nc3nc(=O)n(C(C)C)c(=O)[nH]3)c2)CC1 [Example 289]
37 | 5.30 | CC(Nc1nc(=O)n(C2CCOCC2)c(=O)[nH]1)c1cccc(C2CC2)c1 (stereo not drawn) [Example 136]
38 | 4.85 | O=c1nc(NCCC2CCCCC2)[nH]c(=O)n1C1CCOCC1 [Example 114]
39 | 4.95 | CC(Nc1nc(=O)n(C(C)C)c(=O)[nH]1)c1ccccc1O (stereo not drawn) [Example 51]
40 | 5.87 | COc1cccc([C@H](C)Nc2nc(=O)n(C3CCOCC3)c(=O)[nH]2)c1 [Example 326]
41 | 5.95 | C[C@H](Nc1nc(=O)n(C2CCOCC2)c(=O)[nH]1)c1cccc(C2=CCCCC2)c1 [Example 331]
42 | 4.99 | CC(Nc1nc(=O)n(C(C)C)c(=O)[nH]1)C1CCC(F)(F)CC1 (stereo not drawn) [Example 66]

Row | pIC50 | SMILES
43 | 5.69 | C[C@H](Nc1nc(=O)n(C2CCOCC2)c(=O)[nH]1)c1cccc(-c2cccnc2)c1 [Example 222]
44 | 5.34 | Cc1cccc([C@H](C)Nc2nc(=O)n([C@H]3CC[C@@H](NC(=O)OC(C)(C)C)CC3)c(=O)[nH]2)c1 [Example 96]
45 | 5.80 | C[C@H](Nc1nc(=O)n(C2CCOCC2)c(=O)[nH]1)c1cccc(C2=CCOCC2)c1 [Example 208]
46 | 5.55 | CC(C)n1c(=O)nc(N[C@@H](C)c2cccc(C3CCNCC3)c2)[nH]c1=O [Example 293]
47 | 5.56 | C[C@H](Nc1nc(=O)n([C@@H](C)C(F)(F)F)c(=O)[nH]1)c1ccc(OC(F)(F)F)cc1 [Example 175]
48 | 5.42 | Cc1cn(-c2cccc([C@H](C)Nc3nc(=O)n(C4CCOCC4)c(=O)[nH]3)c2)cn1 [Example 205]
49 | 6.31 | C[C@H](Nc1nc(=O)n(C2CCOCC2)c(=O)[nH]1)c1cccc(OC(F)(F)F)c1 [Example 202]
50 | 5.23 | CC(C)N1CCC(n2c(=O)nc(N[C@@H](C)C3CCCCC3)[nH]c2=O)CC1 [Example 31]
51 | 6.05 | CO[C@H]1COCC[C@@H]1n1c(=O)nc(N[C@@H](C)c2cc(C)ccc2F)[nH]c1=O [Example 282]
52 | 5.92 | CC(C)n1c(=O)nc(N[C@@H](C)c2cccc(C(F)(F)F)c2)[nH]c1=O [Example 322]
53 | 5.93 | C[C@H](Nc1nc(=O)n([C@@H](C)C(F)(F)F)c(=O)[nH]1)C1CCCCC1 [Example 14]
54 | 6.82 | C[C@H](Nc1nc(=O)n(C2CCOCC2)c(=O)[nH]1)c1cccc(C(C)(C)C#N)c1 [Example 276]
55 | 5.74 | COCC(Nc1nc(=O)n(C(C)C)c(=O)[nH]1)c1cc(C)ccc1F (stereo not drawn) [Example 275]
56 | 5.94 | C[C@H](Nc1nc(=O)n(C2CCOCC2)c(=O)[nH]1)c1cccc(C2CN(C(=O)OC(C)(C)C)C2)c1 [Example 336]
57 | 5.53 | CC(C)n1c(=O)nc(N[C@H](c2ccc(F)cc2F)C(F)F)[nH]c1=O [Example 262]
58 | 6.02 | C[C@H](Nc1nc(=O)n(C2CCOCC2)c(=O)[nH]1)c1ccc(Cl)cc1 [Example 251]
59 | 5.48 | Cc1cccc(C(C)Nc2nc(=O)n(C3CCNCC3)c(=O)[nH]2)c1 (stereo not drawn) [Example 187]
60 | 5.17 | C=Cc1ccc(C(C)Nc2nc(=O)n(C3CCOCC3)c(=O)[nH]2)cc1 (stereo not drawn) [Example 141]
61 | 6.04 | CCC(Nc1nc(=O)n(C2CCOCC2)c(=O)[nH]1)c1cccc(C)c1 (stereo not drawn) [Example 292]
62 | 5.97 | C[C@H](Nc1nc(=O)n([C@@H](C)C(F)(F)F)c(=O)[nH]1)c1ccc(Cl)c(Cl)c1 [Example 324]

Row | SMILES | pIC50
63 | Cc1cccc([C@H](C)Nc2nc(=O)n(C3CCN(CCF)CC3)c(=O)[nH]2)c1 [Example 301] | 6.10
64 | C[C@H](Nc1nc(=O)n(C2CCN(CCF)CC2)c(=O)[nH]1)C1CCCCC1 [Example 300] | 5.64
65 | CC(C)[C@H](O)c1cccc([C@H](C)Nc2nc(=O)n(C3CCOCC3)c(=O)[nH]2)c1 [Example 345] | 6.10
66 | CC(C)[C@@H](O)c1cccc([C@H](C)Nc2nc(=O)n(C3CCOCC3)c(=O)[nH]2)c1 [Example 287] | 6.27
